Key:
Assay type in all cases: cell-based, mouse
[1] = test system: Schwann cells; test: Calcium imaging (fura-2) of Schwann cells in the tri-culture; settings: 50 mM extracellular K^+ or 10 μM ACh
Procedure: After loading indicator, coverslips were washed in fresh HBSS for 10 mins at 37° C. and then transferred to an imaging chamber for microscopy experiments. Fura-2 imaging was performed on an Olympus IX71 microscope using a 20× objective lens. Excitation wavelength was selected with a galvanometer-driven monochromator (8 nm slit width) coupled to a 75 W xenon arc lamp (Optoscan; Cairn Research). […] A single image was acquired at 610 nm to identify mApple expressing MNs in the field. Fluorescent images were captured using a cooled charge-coupled device camera (Cascade 512B; Roper Scientific) and Metafluor acquisition software (Molecular Devices). All fura-2 experiments were performed in HBSS buffer at room temperature. To depolarize MNs the extracellular K^+ concentration was increased to 50 mM with K^+ exchanged reciprocally for Na+in HHBS. For myotube stimulation 10 μM ACh was applied by bath perfusion. A 60 s baseline in HHBS was acquired before stimulation of each coverslip. High K^+ was applied for 30 s and ACh for 1 min. After stimulus application, a washout of 60 s was performed. Background images were acquired after each experiment; the coverslip was wiped clean, then 20 frames were acquired using the same parameters as above. Images were processed using MetaFluor Analyst to draw regions of interest (ROIs), subtract background, and generate 340/380 ratios. […]

[2] = test system: MNs; test: Calcium imaging (fura-2) of motor neurons in the motor unit chip; settings: n=8 fields
Procedure: (§1) Tri-cultures on 12.5 mm glass coverslips were briefly washed in HEPES Hanks' Buffer Solution (HHBS) (5.6 mM glucose, 20 mM Hepes, 3 mM NaHCO3, 0.3 mM Na2HPO4, 0.4 mM KH2PO4, 137 mM NaCl, 5.0 mM KCl, […], 4.1 mM MgSO4, 1.26 mM CaCl2, pH=7.4) and then the coverslip was incubated with fura-2 AM in 0.04% pluronic acid dissolved in HHBS to a final concentration of 20 μM for 30 mins at 37° C. After loading indicator, coverslips were washed in fresh HBSS for 10 mins at 37° C. and then transferred to an imaging chamber for microscopy experiments. Fura-2 imaging was performed on an Olympus IX71 microscope using a 20× objective lens. […] Intracellular Ca^2+ concentration ([Ca^2+]i) was monitored by sequential excitation (1 Hz) of fura-2 at 340 and 380 nm. […]
(§2) Images were processed using MetaFluor Analyst to draw regions of interest (ROIs), subtract background, and generate 340/380 ratios. […] Criterion “1” was empirically determined to exclude cells with poor signal to noise ratio. […]
(§3) Data were analyzed using the Student's t test. […] For statistical analyses of calcium image, MN and myotube data were assessed for normality using the D′Agostino-Pearson normality test. […] Percent responders was calculated using number of responders/total MNs or myotubes in the field.

[3] = test system: myotubes; test: Calcium imaging (fura-2) of myotubes in the motor unit chip; settings: n=8 fields
Procedure: as §1, §2, §3

| SMILES | changes in [Ca^2+]i in Schwann cells [1] | MNs responded to 50 mM K^+ stimulation (percent responders) ([2]; 50 mM K^+ for 30 s, 43/62 cells) [%] | depolarization-evoked peak 340/380 ratio ([Ca^2+]i) ([2]; 50 mM K^+, basal 340/380 ratio 0.62±0.06, mean ±SD) | myotubes responded to ACh stimulation (percent responders) ([3]; 10 μM ACh for 60 s, 24/27 cells) [%] | ACh-evoked peak 340/380 ratio ([Ca^2+]i) ([3]; 10 μM ACh, basal 340/380 ratio 0.68±0.12, mean ±SD) |
| --- | --- | --- | --- | --- | --- |
| [Cl-].[K+] [K^+] | did not show any changes in [Ca^2+]i | 70 | 1.83±1.41 |  |  |
| CC(=O)OCC[N+](C)(C)C [ACh, acetylcholine] |  |  |  | 89 | 3.62±2.73 |

— patent US20250215371A1, “MOTOR UNIT CHIP, MANUFACTURING METHOD THEREOF AND METHOD OF DETECTING PATHOLOGICAL EVENT USING THE SAME” (Taipei Medical University, priority 2023, published 2025)
